Data as given in patent US20260070899A1, “N-(2-(4-CYANOTHIAZOLIDIN-3-YL)-2-OXOETHYL)-QUINOLINE-4-CARBOXAMIDES” (AstraZeneca AB, priority 2022, published 2026).
pIC50: −log10 of the molar value.

Experiments:
[1] = Metabolic stability in human liver microsomes (HLM); assay type: in vitro ADME; conditions: n = 1 or average (n = 2-3)
Method: Metabolic stability in HLM was measured as described in J Comput Aided Mol Des 2015, 29, 795.

[2] = biological target: T1, human dipeptidylpeptidase 7 (hDPP7) (Homo sapiens, UniProt Q9UHL4); assay: hDPP7 inhibition assay; assay type: biochemical; conditions: hDPP7 15 nM, Ala-Pro-amino-methylcoumarin 5 μM; n = 1
T1 construct: purchased BPS Bioscience 80070
Method: Compounds were tested in a biochemical inhibition assay using human dipeptidylpeptidase 7 (hDPP7) enzyme at 15 nM FAC (BPS Bioscience, #80070) and the substrate Ala-Pro-amino-methylcoumarin (BPS Bioscience, #80305) at 5 μM FAC. The enzymatic reactions were conducted in duplicate at rt for 30 min in 50 μL DPP assay buffer (BPS Bioscience, #80300). Compound solutions (in DMSO) at 10 CR, 3 fold dilution series were prepared in assay buffer ten-fold higher than the final concentration, and 5 μL of the dilution was added to a 50 μL reaction so that the highest compound concentration was 100 μM FAC and the concentration of DMSO was 1% in all wells. The plates were read on a Tecan Infinite M1000 microplate reader with excitation 340 nm and emission 460 nm. Data were analyzed in Graph Pad Prism. […] Raw data signals were normalized using 1% DMSO as 0% control and no enzyme as 100% inhibitor control.

[3] = biological target: T2, human dipeptidylpeptidase 8 (hDPP8) (Homo sapiens, UniProt Q6V1X1); assay: hDPP8 inhibition assay; assay type: biochemical; conditions: hDPP8 1.5 nM, Ala-Pro-amino-methylcoumarin 5 μM; n = 1
T2 construct: purchased BPS Bioscience 80080
T2 sequence (Q6V1X1 whole entry): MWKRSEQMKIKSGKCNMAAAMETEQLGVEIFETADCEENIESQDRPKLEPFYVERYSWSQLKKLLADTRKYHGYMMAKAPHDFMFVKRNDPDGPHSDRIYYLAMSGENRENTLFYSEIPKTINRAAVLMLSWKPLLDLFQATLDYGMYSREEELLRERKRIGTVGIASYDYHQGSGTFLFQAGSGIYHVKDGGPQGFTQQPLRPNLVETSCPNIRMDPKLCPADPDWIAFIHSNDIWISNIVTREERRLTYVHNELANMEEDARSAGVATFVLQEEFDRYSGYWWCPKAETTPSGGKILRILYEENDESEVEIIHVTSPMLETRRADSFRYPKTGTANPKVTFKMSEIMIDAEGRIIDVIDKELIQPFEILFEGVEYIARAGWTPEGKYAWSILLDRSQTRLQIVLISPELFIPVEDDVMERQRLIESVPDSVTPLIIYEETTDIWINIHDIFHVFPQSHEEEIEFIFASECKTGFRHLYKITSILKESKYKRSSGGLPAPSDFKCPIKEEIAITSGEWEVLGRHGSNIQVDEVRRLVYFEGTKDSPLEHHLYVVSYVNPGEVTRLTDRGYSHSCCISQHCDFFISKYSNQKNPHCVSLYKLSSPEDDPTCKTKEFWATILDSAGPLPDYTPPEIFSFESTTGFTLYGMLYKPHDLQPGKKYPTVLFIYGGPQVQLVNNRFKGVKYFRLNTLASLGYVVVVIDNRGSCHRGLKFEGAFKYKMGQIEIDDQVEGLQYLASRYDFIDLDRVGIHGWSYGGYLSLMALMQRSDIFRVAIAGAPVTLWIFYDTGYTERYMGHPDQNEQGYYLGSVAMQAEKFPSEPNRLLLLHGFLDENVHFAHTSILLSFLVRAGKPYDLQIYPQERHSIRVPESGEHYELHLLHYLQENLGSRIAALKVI
Method: (§1) Compounds were tested in a biochemical inhibition assay using human dipeptidylpeptidase 8 (hDPP8) enzyme at 1.5 nM FAC (BPS Bioscience, #80080) and the substrate Ala-Pro-amino-methylcoumarin (BPS Bioscience #80305) at 5 μM FAC. The enzymatic reactions were conducted in duplicate at rt for 30 min in 50 μL DPP assay buffer (BPS Bioscience, #80300). Compound solutions (in DMSO) at 10 CR, 3 fold dilution series were prepared in assay buffer ten-fold higher than the final concentration, and 5 μL of the dilution was added to a 50 μL reaction so that the highest compound concentration was 100 μM FAC and the concentration of DMSO was 1% in all wells. The plates were read on a Tecan Infinite M1000 microplate reader with excitation 340 nm and emission 460 nm. Data were analyzed in Graph Pad Prism. […] Raw data signals were normalized using 1% DMSO as 0% control and no enzyme as 100% inhibitor control.

[4] = biological target: T3, human dipeptidylpeptidase 9 (hDPP9) (Homo sapiens, UniProt Q86TI2); assay: hDPP9 inhibition assay; assay type: biochemical; conditions: hDPP9 0.4 nM, Ala-Pro-amino-methylcoumarin 5 μM; n = 1
T3 construct: purchased BPS Bioscience 80090
T3 sequence (Q86TI2 whole entry): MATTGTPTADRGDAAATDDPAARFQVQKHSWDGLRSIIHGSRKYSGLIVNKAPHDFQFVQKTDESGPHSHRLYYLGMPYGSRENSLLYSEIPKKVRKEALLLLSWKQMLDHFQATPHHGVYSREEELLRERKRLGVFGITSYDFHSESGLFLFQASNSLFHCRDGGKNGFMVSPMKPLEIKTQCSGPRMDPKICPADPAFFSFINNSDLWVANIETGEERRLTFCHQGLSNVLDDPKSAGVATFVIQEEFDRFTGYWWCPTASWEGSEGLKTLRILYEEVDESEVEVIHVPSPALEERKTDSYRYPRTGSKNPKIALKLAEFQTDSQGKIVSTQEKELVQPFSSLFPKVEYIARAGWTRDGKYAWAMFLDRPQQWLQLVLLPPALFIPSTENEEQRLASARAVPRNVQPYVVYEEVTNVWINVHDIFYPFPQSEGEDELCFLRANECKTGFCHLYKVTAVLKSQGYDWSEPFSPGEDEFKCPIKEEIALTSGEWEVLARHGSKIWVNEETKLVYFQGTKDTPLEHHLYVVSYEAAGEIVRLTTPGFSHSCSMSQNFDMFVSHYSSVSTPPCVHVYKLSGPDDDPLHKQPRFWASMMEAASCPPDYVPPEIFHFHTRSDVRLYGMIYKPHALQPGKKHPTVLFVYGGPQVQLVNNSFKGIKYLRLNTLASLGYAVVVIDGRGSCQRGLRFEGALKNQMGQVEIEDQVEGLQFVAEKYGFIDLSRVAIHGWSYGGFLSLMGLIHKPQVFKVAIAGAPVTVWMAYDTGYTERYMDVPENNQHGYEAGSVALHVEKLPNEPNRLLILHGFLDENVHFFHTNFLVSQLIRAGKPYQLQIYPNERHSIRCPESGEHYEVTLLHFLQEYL
Method: as §1, with “9 (hDPP9)” for “8 (hDPP8)”, “0.4” for “1.5”, “#80090)” for “#80080)”

Compound	microsomal CLint [1]	pIC50 [2]	pIC50 [3]	pIC50 [4]
COC(C)(C)c1ccc2nccc(C(=O)NCC(=O)N3CSC[C@H]3C#N)c2c1 [Example 18, (R)—N-(2-(4-Cyanothiazolidin-3-yl)-2-oxoethyl)-6-(2-methoxypropan-2-yl)quinoline-4-carboxamide]	69 µL/min/mg	–	–	–
CC(C)(F)COc1ccc2nccc(C(=O)NCC(=O)N3CSC[C@H]3C#N)c2c1 [Example 3, (R)—N-(2-(4-Cyanothiazolidin-3-yl)-2-oxoethyl)-6-(2-fluoro-2-methylpropoxy)quinoline-4-carboxamide]	–	< 4.00	5.19	5.72
